Test results from paper PMC5831597, “Alleviating the Intestinal Absorption of Rhein in Rhubarb through Herb Compatibility in Tiaowei Chengqi Tang in Caco-2 Cells” (Evidence-based Complementary and Alternative Medicine : eCAM, 2018).
Converted amounts (≈) assume the structure as drawn.

What was measured:
[1] = MTT cytotoxicity assay on Caco-2 cells; type: cell-based; settings: human, 48 h exposure
Method: Caco-2 cells were maintained in DMEM containing 10% FBS (inactivation at 56°C for 30 min), 1% NEAA, and 1% penicillin and streptomycin solution in a humidified atmosphere with 5% CO2 at 37°C. The medium was replaced every 2 days, and the cells were passaged at 80 to 90% confluence using trypsin/phosphate-buffered saline (PBS, pH 7.4). The cytotoxicity of rhein, RE, PE, RPE, and TWCQT to Caco-2 cells was evaluated by MTT assay. Briefly, 200 μl of Caco-2 cells was seeded in a 96-well plate (Coring, NY, USA) at a density of 2 × 10^4 cells/ml. Following incubation for 24 h, different concentrations of test solution were added. Thereafter, 20 μl of 5 mg/mL MTT was added, the medium was removed after 4 h, and the remaining formazan crystals were solubilized with 150 μl of dimethyl sulfoxide (DMSO). The absorbance was measured at 490 nm on a microplate reader (Thermo Scientific, Tokyo, Japan). Cells incubated without the test samples were used as controls. In each MTT assay, every sample was tested in 6 replicates.

[2] = Transport of rhein across the Caco-2 cell monolayer (A to B, B to A); type: in vitro ADME, human; settings: human, Caco-2, PE, RPE
Method: (§1) For transport experiments, the cells were seeded at a density of 1 × 10^5 cells/ml on polycarbonate membranes of cell culture inserts (6.5 mm membrane diameter, 0.4 μm pore size, and 0.33 cm^2 surface area) and placed in 12-well cell culture clusters. The transepithelial electrical resistance (TEER) was assessed using a Millicell ERS-2 (Millipore, USA) to reflect the tightness of intercellular junctions. […] The transports of rhein alone, rhein in RE, PE, RPE, and TWCQT across Caco-2 monolayers were investigated. Briefly, the cell monolayers were washed 3 times with D-Hanks. After each wash, the plates were incubated in fresh D-Hanks for 30 min at 37°C. The transport experiments were conducted by adding the test solution to either the apical (A, 0.5 ml) or basolateral side (B, 1.5 ml), while the receiving chamber contained the corresponding volume of prewarmed drug-free D-Hanks. Every experiment was repeated 3 times, and the plates were incubated in an orbital shaker at 37°C. […] sequential samples (50 μl) were taken at different times (30, 60, 90, 120, and 150 min) from both sides of the cell monolayer. The same volume of D-Hanks was immediately added to replace the samples obtained. […] All inhibitors were loaded onto the A side of the monolayers. […] The concentrations of all the samples were analyzed by UPLC-QTOF-HRMS-MS. Data in the present study were presented as mean ± standard deviation (SD). Significant analysis was performed using Statistical Package for Social Sciences (SPSS) version 16.0 (SPSS Inc., Chicago, IL, USA). Statistical significance was determined by one-way ANOVA with Dunnett's test and differences were considered significant when p < 0.05. In the Caco-2 cell model, the rate of transport was obtained from the amount transported versus time curve using linear regression. The apparent permeability (Papp) used as an expression of the absorption rate constant was calculated as follows: Papp = (dQ/dt)/(A × C0), where dQ/dt is the rate at which the compound appears in the receiver chamber (mg/s), A is the surface area of the filter membrane ([…]), and C0 is the initial concentration in the donor chamber (mg/mL). Efflux ratio (ER) was calculated from the following equation: ER = […]), where Papp(B to A) is the Papp value measured in the B to A direction and Papp(A to B) is the Papp value measured in the A to B direction.

BCRP [3] = experiment: as above; type: in vitro ADME, human; settings: human, Caco-2, with Ko143 10 μmol/ml, loaded onto the A side; rhein 27.3 μg/ml; Ko143 10 μmol/ml (BCRP inhibitor); read-out: ER of rhein in presence of Ko143
Method: as §1

Caco-2 cell monolayer = experiment: as above; type: in vitro ADME, human
Method: as §1

MRP2 = experiment: as above; type: in vitro ADME, human; settings: human, Caco-2, with MK-571 50 μmol/ml, loaded onto the A side; rhein 27.3 μg/ml; MK-571 50 μmol/ml (MRP2 inhibitor); read-out: ER of rhein in presence of MK-571
Method: as §1

P-gp = experiment: as above; type: in vitro ADME, human; settings: human, Caco-2, with verapamil 50 μmol/ml, loaded onto the A side; rhein 27.3 μg/ml; verapamil 50 μmol/ml (P-gp inhibitor); read-out: ER of rhein in presence of verapamil
Method: as §1

Caco-2 cells = experiment: Cellular uptake of rhein in cultured Caco-2 cell monolayers; type: in vitro ADME, human; settings: rhein 27.3 μg/ml
Method: Cell monolayers were prepared as described for the transport studies. […] Cells attached to the polycarbonate membranes were cut off from the inserts, immersed in 1 ml blank D-Hanks, and sonicated for 15 min. The mixture was centrifuged at 10,000 ×g for 5 min. The concentrations of all the samples were analyzed by UPLC-QTOF-HRMS-MS.

[4] = test system: human colon adenocarcinoma cells (Caco-2); design: method as in PMID 19538468; settings: Caco-2, 0.1–10 μg/ml; cited from earlier work
BCRP [5] = settings: BCRP inhibitor; cited from earlier work

## O=C(O)c1cc(O)c2c(c1)C(=O)c1cccc(O)c1C2=O [Rhein]
[1]
  IC50 at 48 h: 3490 ± 960 µg/mL (≈ 12.3 mM)
[2]; apical to basolateral, rhein 27.3 μg/ml, TWCQT 1 mg/ml, read-out: Papp PAB of rhein
  Papp at 150 min, 27.3 μg/ml: 2.31 ± 0.13 ×10⁻⁶ cm/s
[2]; apical to basolateral, rhein 54.6 μg/ml, TWCQT 2 mg/ml, read-out: Papp PAB of rhein
  Papp at 150 min, 54.6 μg/ml: 2.58 ± 0.26 ×10⁻⁶ cm/s
[2]; apical to basolateral, rhein 109.2 μg/ml, TWCQT 4 mg/ml, read-out: Papp PAB of rhein
  Papp at 150 min, 109.2 μg/ml: 2.52 ± 0.19 ×10⁻⁶ cm/s
[2]; basolateral to apical, rhein 27.3 μg/ml, TWCQT 1 mg/ml, read-out: Papp PBA of rhein
  Papp B→A at 150 min, 27.3 μg/ml: 6.54 ± 0.27 ×10⁻⁶ cm/s
[2]; basolateral to apical, rhein 54.6 μg/ml, TWCQT 2 mg/ml, read-out: Papp PBA of rhein
  Papp B→A at 150 min, 54.6 μg/ml: 7.02 ± 0.58 ×10⁻⁶ cm/s
[2]; basolateral to apical, rhein 109.2 μg/ml, TWCQT 4 mg/ml, read-out: Papp PBA of rhein
  Papp B→A at 150 min, 109.2 μg/ml: 6.72 ± 0.31 ×10⁻⁶ cm/s
[2]; rhein 27.3 μg/ml, TWCQT 1 mg/ml, read-out: ER PBA/PAB of rhein
  efflux ratio at 150 min, 27.3 μg/ml: 2.83
[2]; rhein 54.6 μg/ml, TWCQT 2 mg/ml, read-out: ER PBA/PAB of rhein
  efflux ratio at 150 min, 54.6 μg/ml: 2.72
[2]; rhein 109.2 μg/ml, TWCQT 4 mg/ml, read-out: ER PBA/PAB of rhein
  efflux ratio at 150 min, 109.2 μg/ml: 2.38
BCRP [3]
  efflux ratio at 150 min, 27.3 μg/ml: 1.27
Caco-2 cell monolayer; 8.61, 17.22, 34.44, 27.3, 54.6 and 109.2 μg/ml rhein
  ER of rhein at different concentrations: more than 1.5
Caco-2 cell monolayer; rhein 27.3 μg/ml, Ko143 10 μmol/ml, p < 0.01
  amounts of rhein transported from B to A after Ko143: significantly decreased
Caco-2 cell monolayer; rhein 27.3 μg/ml, MK-571 50 μmol/ml, p < 0.05
  influence of MK-571 on Papp values of rhein from B to A: significant influences
Caco-2 cell monolayer; rhein 27.3 μg/ml, verapamil 50 μmol/ml
  influence of verapamil on Papp values of rhein from A to B or B to A: no significant influence
MRP2
  efflux ratio at 150 min, 27.3 μg/ml: 1.98
P-gp
  efflux ratio at 150 min, 27.3 μg/ml: 2.12
Caco-2 cells; 2 h, Ko143 10 μmol/ml
  intracellular accumulation of rhein after Ko143: significantly increased
Caco-2 cells; 2 h, MK-571 50 μmol/ml
  intracellular amounts of rhein after MK-571: no significant changes
Caco-2 cells; 2 h, verapamil 50 μmol/ml
  intracellular amounts of rhein after verapamil: no significant changes
Caco-2 cells; A compartment, 2 h incubation
  cellular uptake of rhein: 0.68 ng/μg protein
[4]
  cytotoxic and genotoxic effects: devoid of cytotoxic and genotoxic effects

## COc1ccc2c3c([nH]c2c1)[C@H](CC(C)C)N1C(=O)[C@H](CCC(=O)OC(C)(C)C)NC(=O)[C@@H]1C3 [Ko143]
BCRP [5]
  selectivity over P-gp and MRP1 transporters: higher than 200 fold
